According to ChEMBL document CHEMBL4680207, “The discovery, design and synthesis of potent agonists of adenylyl cyclase type 2 by virtual screening combining biological evaluation” (Eur J Med Chem, 2020):
The source made the active and inactive calls. No cut-off for these calls is given here.

Key:
Assay type in all cases: cell-based
[1] = target: T1, Adenylate cyclase type 2 (Homo sapiens, UniProt Q08462); assay: Agonist activity at recombinant human AC2 expressed in HEK293 cells assessed as increase in cAMP level by measuring cAMP level at 50 uM measured after 30 mins by LANCE Ultra cAMP Detection kit method relative to control
[2] = target: T1, Adenylate cyclase type 2; assay: Agonist activity at recombinant human AC2 expressed in HEK293 cells assessed as increase in cAMP level measured after 30 mins by LANCE Ultra cAMP Detection kit method
[3] = target: T1, Adenylate cyclase type 2; assay: Agonist activity at recombinant human AC2 expressed in HEK293 cells assessed as increase in cAMP level at 50 uM measured after 30 mins by LANCE Ultra cAMP Detection kit method; conditions: filed as agonist
[4] = target: Adenylate cyclase type 8 (Homo sapiens, UniProt P40145); assay: Agonist activity at recombinant human AC8 expressed in HEK293 cells assessed as increase in cAMP level at 50 uM measured after 30 mins by LANCE Ultra cAMP Detection kit method; conditions: hek293, 0.5 h
Adenylate cyclase type 8, sequence (P40145 whole entry): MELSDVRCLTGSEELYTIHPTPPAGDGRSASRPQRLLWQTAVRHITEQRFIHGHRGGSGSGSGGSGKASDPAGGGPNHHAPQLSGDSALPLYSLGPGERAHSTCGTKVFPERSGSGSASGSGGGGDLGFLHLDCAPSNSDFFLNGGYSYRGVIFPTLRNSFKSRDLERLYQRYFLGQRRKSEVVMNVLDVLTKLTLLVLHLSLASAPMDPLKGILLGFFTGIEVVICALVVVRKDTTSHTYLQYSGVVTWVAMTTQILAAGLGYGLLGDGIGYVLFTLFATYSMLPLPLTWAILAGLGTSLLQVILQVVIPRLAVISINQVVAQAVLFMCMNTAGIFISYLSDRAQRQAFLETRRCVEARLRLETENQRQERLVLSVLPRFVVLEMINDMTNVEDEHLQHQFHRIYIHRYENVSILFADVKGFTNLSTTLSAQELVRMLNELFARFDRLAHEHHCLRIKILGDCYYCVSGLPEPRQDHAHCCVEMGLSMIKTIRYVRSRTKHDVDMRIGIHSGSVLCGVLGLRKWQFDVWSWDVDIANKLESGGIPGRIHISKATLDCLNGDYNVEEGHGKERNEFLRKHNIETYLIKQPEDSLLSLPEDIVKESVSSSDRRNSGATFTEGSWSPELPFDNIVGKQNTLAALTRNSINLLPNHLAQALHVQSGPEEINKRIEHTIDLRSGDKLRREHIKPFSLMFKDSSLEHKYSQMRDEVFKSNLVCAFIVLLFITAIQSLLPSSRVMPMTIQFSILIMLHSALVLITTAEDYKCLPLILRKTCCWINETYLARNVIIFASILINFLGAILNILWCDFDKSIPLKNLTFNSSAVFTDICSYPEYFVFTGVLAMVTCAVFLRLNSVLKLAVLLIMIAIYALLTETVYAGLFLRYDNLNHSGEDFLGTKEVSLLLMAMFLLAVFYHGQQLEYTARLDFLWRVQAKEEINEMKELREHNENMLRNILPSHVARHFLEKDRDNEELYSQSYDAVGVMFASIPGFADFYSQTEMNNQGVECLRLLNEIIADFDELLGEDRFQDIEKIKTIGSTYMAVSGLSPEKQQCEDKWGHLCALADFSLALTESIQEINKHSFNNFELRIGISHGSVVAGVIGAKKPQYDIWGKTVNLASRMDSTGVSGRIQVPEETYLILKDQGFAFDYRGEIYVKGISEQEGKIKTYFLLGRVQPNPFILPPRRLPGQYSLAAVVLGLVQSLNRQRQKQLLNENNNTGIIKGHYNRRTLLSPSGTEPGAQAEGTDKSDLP

T1 sequence (Q08462 whole entry): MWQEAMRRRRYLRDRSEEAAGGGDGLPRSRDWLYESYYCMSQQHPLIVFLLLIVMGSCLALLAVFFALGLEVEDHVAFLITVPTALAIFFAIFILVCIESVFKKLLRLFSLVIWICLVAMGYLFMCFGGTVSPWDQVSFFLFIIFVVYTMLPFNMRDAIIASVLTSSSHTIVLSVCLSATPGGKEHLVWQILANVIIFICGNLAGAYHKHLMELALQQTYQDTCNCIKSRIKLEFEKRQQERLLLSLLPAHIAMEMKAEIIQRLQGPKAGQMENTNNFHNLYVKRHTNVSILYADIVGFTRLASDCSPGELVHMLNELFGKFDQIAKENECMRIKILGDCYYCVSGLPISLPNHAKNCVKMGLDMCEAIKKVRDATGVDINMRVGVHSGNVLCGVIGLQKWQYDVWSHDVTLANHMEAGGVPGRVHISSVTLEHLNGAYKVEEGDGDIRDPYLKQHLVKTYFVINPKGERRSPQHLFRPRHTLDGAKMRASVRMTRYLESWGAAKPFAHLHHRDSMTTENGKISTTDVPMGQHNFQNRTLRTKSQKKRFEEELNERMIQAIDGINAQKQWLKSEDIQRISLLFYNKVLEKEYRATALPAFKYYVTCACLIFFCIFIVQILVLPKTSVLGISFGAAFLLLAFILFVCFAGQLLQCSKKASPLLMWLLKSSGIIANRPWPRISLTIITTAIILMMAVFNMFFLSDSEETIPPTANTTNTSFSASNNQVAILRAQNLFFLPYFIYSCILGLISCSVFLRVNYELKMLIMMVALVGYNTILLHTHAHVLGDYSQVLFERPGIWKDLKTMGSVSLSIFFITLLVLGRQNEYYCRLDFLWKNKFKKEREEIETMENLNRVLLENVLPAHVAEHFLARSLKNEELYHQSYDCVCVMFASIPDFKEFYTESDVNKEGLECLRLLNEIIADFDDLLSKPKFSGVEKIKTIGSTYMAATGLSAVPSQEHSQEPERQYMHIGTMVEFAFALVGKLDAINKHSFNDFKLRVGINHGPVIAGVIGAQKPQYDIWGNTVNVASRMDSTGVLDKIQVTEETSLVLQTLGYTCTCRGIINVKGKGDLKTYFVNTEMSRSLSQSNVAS

Cc1ccc([C@H]2OC3(C(=O)c4ccccc4C3=O)[C@H]3C(=O)N(C4CC4)C(=O)[C@@H]23)cc1 showed an Activity ([1]; filed as agonist) of 70.8% and an EC50 [2] of 3.37 µM.
With Cc1cccc([C@H]2OC3(C(=O)c4ccccc4C3=O)[C@H]3C(=O)N(c4cccc(C)c4)C(=O)[C@@H]23)c1 the Activity ([1]; filed as agonist) was 84.7%.
With O=C1[C@H]2[C@@H](CCc3ccccc3)OC3(C(=O)c4ccccc4C3=O)[C@H]2C(=O)N1c1ccccc1Cl the Activity [1] was 32%.
O=C1[C@H]2[C@@H](Cc3ccccc3)OC3(C(=O)c4ccccc4C3=O)[C@H]2C(=O)N1c1ccccc1Cl gave an Activity [1] of 0%.
O=C1[C@H]2[C@@H](c3ccc(Cl)cc3)OC3(C(=O)c4ccccc4C3=O)[C@H]2C(=O)N1c1ccc(F)cc1 was tested, and the Activity ([1]; filed as agonist) was 100% and the EC50 [2] was 0.53 µM.
CC(C)c1ccc([C@H]2OC3(C(=O)c4ccccc4C3=O)[C@H]3C(=O)N(c4ccc(F)cc4)C(=O)[C@@H]23)cc1 gave an Activity ([1]; filed as agonist) of 89.3% and an EC50 [2] of 1.3 µM.
Cc1ccc([C@H]2OC3(C(=O)c4ccccc4C3=O)[C@H]3C(=O)N(C(C)(C)C)C(=O)[C@@H]23)cc1 was tested, and the Activity [1] was 31%.
Cc1ccc([C@H]2OC3(C(=O)c4cccc(C)c4C3=O)[C@H]3C(=O)N(c4ccccc4Cl)C(=O)[C@@H]23)cc1 (mixture of isomers) gave an Activity ([1]; filed as agonist) of 59.3% and an EC50 [2] of 1.08 µM.
Cc1ccc([C@H]2OC3(C(=O)c4ccc(C)cc4C3=O)[C@H]3C(=O)N(c4ccccc4Cl)C(=O)[C@@H]23)cc1 (mixture of isomers) was tested, and the Activity ([1]; filed as agonist) was 98.1% and the EC50 [2] was 0.3 µM.
For COc1ccc(OC)c(N2C(=O)[C@H]3[C@@H](c4ccc(C)cc4)OC4(C(=O)c5ccccc5C4=O)[C@H]3C2=O)c1, the Activity ([1]; filed as agonist) was 103% and the EC50 [2] was 1.2 µM.
Cc1ccccc1[C@H]1OC2(C(=O)c3ccccc3C2=O)[C@H]2C(=O)N(c3ccccc3Cl)C(=O)[C@@H]12 was tested, and the Activity [1] was 30.7%.
For Cc1ccc([C@H]2OC3(C(=O)c4ccccc4C3=O)[C@H]3C(=O)N(C4CCCC4)C(=O)[C@@H]23)cc1, the Activity ([1]; filed as agonist) was 64.9% and the EC50 [2] was 3.44 µM.
CCOc1ccc(N2C(=O)[C@H]3[C@@H](c4ccccc4)OC4(C(=O)c5ccccc5C4=O)[C@H]3C2=O)cc1 showed an Activity ([1]; filed as agonist) of 82.3% and an EC50 [2] of 32.3 µM.
In the case of CC(C)=C[C@H]1OC2(C(=O)c3ccccc3C2=O)[C@H]2C(=O)N(c3ccccc3Cl)C(=O)[C@@H]12, the Activity ([1]; filed as agonist) is reported as 44.7%.
With Cc1ccc([C@H]2OC3(C(=O)c4ccccc4C3=O)[C@H]3C(=O)N(C4CCC4)C(=O)[C@@H]23)cc1 the Activity [1] was 0%.
Cc1ccc([C@H]2OC3(C(=O)c4cccc(F)c4C3=O)[C@H]3C(=O)N(c4ccccc4Cl)C(=O)[C@@H]23)cc1 (mixture of isomers) was tested, and the Activity ([1]; filed as agonist) was 59.1% and the EC50 [2] was 0.345 µM.
In the case of Cc1ccc([C@H]2OC3(C(=O)c4ccccc4C3=O)[C@H]3C(=O)N(c4ccc(F)cc4)C(=O)[C@@H]23)cc1, the Activity ([1]; filed as agonist) is reported as 99.5% and the EC50 [2] is reported as 1.64 µM.
With O=C1[C@H]2[C@@H](C3CC3)OC3(C(=O)c4ccccc4C3=O)[C@H]2C(=O)N1c1ccccc1Cl the Activity [1] was 0%.
Cc1ccc([C@H]2OC3(C(=O)c4ccccc4C3=O)[C@H]3C(=O)N(c4ccc(C)c(Cl)c4)C(=O)[C@@H]23)cc1 showed an Activity ([1]; filed as agonist) of 96.4% and an EC50 [2] of 0.75 µM.
O=C1[C@H]2[C@@H](c3ccc(-c4ccccc4)cc3)OC3(C(=O)c4ccccc4C3=O)[C@H]2C(=O)N1c1ccccc1Cl showed an Activity [1] of 5.04%.
In the case of Cc1ccc([C@H]2OC3(C(=O)c4ccccc4C3=O)[C@H]3C(=O)N(c4ccccc4Cl)C(=O)[C@@H]23)cc1, the Activity ([1]; filed as agonist) is reported as 93.6% and the EC50 [2] is reported as 0.17 µM.
With Cc1ccc([C@H]2OC3(C(=O)c4cccc(Br)c4C3=O)[C@H]3C(=O)N(c4ccccc4Cl)C(=O)[C@@H]23)cc1 (mixture of isomers) the Activity ([1]; filed as agonist) was 76% and the EC50 [2] was 11.6 µM.
For CC(C)[C@H]1OC2(C(=O)c3ccccc3C2=O)[C@H]2C(=O)N(c3ccccc3Cl)C(=O)[C@@H]12, the Activity [1] was 27.2%.
With Cc1ccc([C@H]2OC3(C(=O)c4ccc(Cl)cc4C3=O)[C@H]3C(=O)N(c4ccccc4Cl)C(=O)[C@@H]23)cc1 (mixture of isomers) the Activity ([1]; filed as agonist) was 96.2% and the EC50 [2] was 0.236 µM.
Cc1cccc([C@H]2OC3(C(=O)c4ccccc4C3=O)[C@H]3C(=O)N(c4ccccc4Cl)C(=O)[C@@H]23)c1 was tested, and the Activity ([1]; filed as agonist) was 57.4% and the EC50 [2] was 6.81 µM.
Compound CCOc1ccc(N2C(=O)[C@H]3[C@@H](c4ccc(C)cc4)OC4(C(=O)c5ccccc5C4=O)[C@H]3C2=O)cc1 has an Activity ([1]; filed as agonist) of 97.7% and an EC50 [2] of 10.8 µM.
Work on COc1ccc([C@H]2OC3(C(=O)c4ccccc4C3=O)[C@H]3C(=O)N(c4ccccc4F)C(=O)[C@@H]23)cc1 yielded an Activity [1] of 0.25%.
Cc1ccc([C@H]2OC3(C(=O)c4ccccc4C3=O)[C@H]3C(=O)N(C(C)C)C(=O)[C@@H]23)cc1 gave an Activity ([1]; filed as agonist) of 59% and an EC50 [2] of 7.34 µM.
Work on CC/C=C(\CCC)[C@H]1OC2(C(=O)c3ccccc3C2=O)[C@H]2C(=O)N(c3ccccc3Cl)C(=O)[C@@H]12 yielded an Activity ([1]; filed as agonist) of 44.5%.
CCOc1ccc([C@H]2OC3(C(=O)c4ccccc4C3=O)[C@H]3C(=O)N(c4ccc(C)cc4)C(=O)[C@@H]23)cc1 was tested, and the Activity ([1]; filed as agonist) was 100% and the EC50 [2] was 24.8 µM.
With O=C1[C@H]2[C@@H](c3ccc(Cl)cc3)OC3(C(=O)c4ccccc4C3=O)[C@H]2C(=O)N1c1cccc(F)c1 the Activity ([1]; filed as agonist) was 99.9% and the EC50 [2] was 3.53 µM.
O=C1[C@H]2[C@@H](c3ccccc3)OC3(C(=O)c4ccccc4C3=O)[C@H]2C(=O)N1c1cccc(Cl)c1 was tested, and the Activity ([1]; filed as agonist) was 103%, the EC50 [2] was 8.1 µM and the Activity ([2]; filed as agonist) was “Dose-dependent effect”. For the same compound, the Activity [3] was “Active”.
For Cc1cc(C)cc(N2C(=O)[C@H]3[C@@H](c4ccccc4Cl)OC4(C(=O)c5ccccc5C4=O)[C@H]3C2=O)c1, the Activity [1] was 7.14%.
Work on Cc1ccc([C@H]2OC3(C(=O)c4ccccc4C3=O)[C@H]3C(=O)N(c4ccc(C)c(C)c4)C(=O)[C@@H]23)cc1 yielded an Activity ([1]; filed as agonist) of 104% and an EC50 [2] of 0.21 µM.
With O=C1[C@H]2[C@@H](C3CCCCC3)OC3(C(=O)c4ccccc4C3=O)[C@H]2C(=O)N1c1ccccc1Cl the Activity ([1]; filed as agonist) was 55.6%.
Cc1ccc([C@H]2OC3(C(=O)c4ccccc4C3=O)[C@H]3C(=O)N(c4ccc(C)cc4F)C(=O)[C@@H]23)cc1 was tested, and the Activity ([1]; filed as agonist) was 107% and the EC50 [2] was 0.77 µM.
Work on Cc1ccc([C@H]2OC3(C(=O)c4ccccc4C3=O)[C@H]3C(=O)N(C4CCCCC4)C(=O)[C@@H]23)cc1 yielded an Activity ([1]; filed as agonist) of 69.5% and an EC50 [2] of 1.29 µM.
Cc1cc(C)cc(N2C(=O)[C@H]3[C@@H](c4ccc(Cl)cc4)OC4(C(=O)c5ccccc5C4=O)[C@H]3C2=O)c1 gave an Activity ([1]; filed as agonist) of 96.9% and an EC50 [2] of 0.31 µM.
With Cc1ccc([C@H]2OC3(C(=O)c4ccc(F)cc4C3=O)[C@H]3C(=O)N(c4ccccc4Cl)C(=O)[C@@H]23)cc1 (mixture of isomers) the Activity ([1]; filed as agonist) was 80.8% and the EC50 [2] was 0.692 µM.
O=C1[C@H]2[C@@H](c3ccccc3)OC3(C(=O)c4ccccc4C3=O)[C@H]2C(=O)N1c1ccc(Cl)cc1 gave an Activity ([1]; filed as agonist) of 91.5% and an EC50 [2] of 2.06 µM.
Work on COc1cc(C)ccc1N1C(=O)[C@H]2[C@@H](c3cccc(C)c3)OC3(C(=O)c4ccccc4C3=O)[C@H]2C1=O yielded an Activity ([1]; filed as agonist) of 103% and an EC50 [2] of 5.96 µM.
Cc1ccc([C@H]2OC3(C(=O)c4cccc(Cl)c4C3=O)[C@H]3C(=O)N(c4ccccc4Cl)C(=O)[C@@H]23)cc1 (mixture of isomers) was tested, and the Activity ([1]; filed as agonist) was 88.5% and the EC50 [2] was 0.301 µM.
Cc1ccc([C@H]2OC3(C(=O)c4ccccc4C3=O)[C@H]3C(=O)N(CC(C)C)C(=O)[C@@H]23)cc1 was tested, and the Activity ([1]; filed as agonist) was 56.7%.
In the case of CCc1ccc([C@H]2OC3(C(=O)c4ccccc4C3=O)[C@H]3C(=O)N(c4ccc(C)cc4)C(=O)[C@@H]23)cc1, the Activity ([1]; filed as agonist) is reported as 95.9% and the EC50 [2] is reported as 0.67 µM.
Compound COc1ccc(N2C(=O)[C@H]3[C@@H](c4ccc(C)cc4)OC4(C(=O)c5ccccc5C4=O)[C@H]3C2=O)cc1 has an Activity ([1]; filed as agonist) of 93.6% and an EC50 [2] of 17.1 µM.
Work on CCc1ccc(N2C(=O)[C@H]3[C@@H](c4ccc(Cl)cc4)OC4(C(=O)c5ccccc5C4=O)[C@H]3C2=O)cc1 yielded an Activity ([1]; filed as agonist) of 102% and an EC50 [2] of 0.43 µM.
For CC[C@H]1OC2(C(=O)c3ccccc3C2=O)[C@H]2C(=O)N(c3ccccc3Cl)C(=O)[C@@H]12, the Activity [1] was 0%.
For Cc1ccc([C@H]2OC3(C(=O)c4ccccc4C3=O)[C@H]3C(=O)N(c4ccc(F)c(Cl)c4)C(=O)[C@@H]23)cc1, the Activity ([1]; filed as agonist) was 103% and the EC50 [2] was 0.52 µM.
Compound CCC[C@H]1OC2(C(=O)c3ccccc3C2=O)[C@H]2C(=O)N(c3ccccc3Cl)C(=O)[C@@H]12 has an Activity ([1]; filed as agonist) of 59.6% and an EC50 [2] of 4.29 µM.
With CCc1ccccc1N1C(=O)[C@H]2[C@@H](c3ccccc3Cl)OC3(C(=O)c4ccccc4C3=O)[C@H]2C1=O the Activity [1] was 20%.
For Cc1ccc(N2C(=O)[C@H]3[C@@H](c4cccc(Cl)c4)OC4(C(=O)c5ccccc5C4=O)[C@H]3C2=O)cc1, the Activity ([1]; filed as agonist) was 97.9% and the EC50 [2] was 5.05 µM.
In the case of CCOc1ccc(N2C(=O)[C@H]3[C@@H](c4ccc(F)cc4)OC4(C(=O)c5ccccc5C4=O)[C@H]3C2=O)cc1, the Activity ([1]; filed as agonist) is reported as 91% and the EC50 [2] is reported as 39.3 µM.
For Cc1ccc([C@H]2OC3(C(=O)c4ccccc4C3=O)[C@H]3C(=O)N(C)C(=O)[C@@H]23)cc1, the Activity ([1]; filed as agonist) was 62% and the EC50 [2] was 3.08 µM.
Work on O=C1[C@H]2[C@@H](c3ccc4ccccc4c3)OC3(C(=O)c4ccccc4C3=O)[C@H]2C(=O)N1c1ccccc1Cl yielded an Activity [1] of 0%.
Cc1ccc(N2C(=O)[C@H]3[C@@H](c4ccccc4)OC4(C(=O)c5ccccc5C4=O)[C@H]3C2=O)cc1Cl was tested, and the Activity ([1]; filed as agonist) was 80.3%.
With COc1cccc(N2C(=O)[C@H]3[C@@H](c4ccc(C)cc4)OC4(C(=O)c5ccccc5C4=O)[C@H]3C2=O)c1 the Activity ([1]; filed as agonist) was 84.6% and the EC50 [2] was 0.96 µM.
For COc1cccc([C@H]2OC3(C(=O)c4ccccc4C3=O)[C@H]3C(=O)N(c4ccc(C)cc4)C(=O)[C@@H]23)c1, the Activity ([1]; filed as agonist) was 97.8% and the EC50 [2] was 1.6 µM.
CCOC(=O)C1(Cc2ccc(Cl)cc2Cl)C(=O)Nc2ccccc21 (stereo not given) was tested, and the Activity [4] was “Active”.
Cc1ccc(Cl)cc1N1C(=O)[C@H]2[C@@H](c3ccccc3)OC3(C(=O)c4ccccc4C3=O)[C@H]2C1=O showed an Activity ([1]; filed as agonist) of 101% and an EC50 [2] of 3.12 µM.
